Measurements published in ChEMBL document CHEMBL1201862, “PubChem BioAssay data set” (2004).
Activity calls are given as the source filed them.

How the values were obtained:
[1] = target: T1, Low molecular weight phosphotyrosine protein phosphatase (Homo sapiens, UniProt P24666); assay type: functional; conditions: read-out: IC50_Mean;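 also: Dose-response confirmation assay measuring inhibition of LMPTP enzyme activity by fluorescence intensity read-out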
T1 sequence (P24666 whole entry): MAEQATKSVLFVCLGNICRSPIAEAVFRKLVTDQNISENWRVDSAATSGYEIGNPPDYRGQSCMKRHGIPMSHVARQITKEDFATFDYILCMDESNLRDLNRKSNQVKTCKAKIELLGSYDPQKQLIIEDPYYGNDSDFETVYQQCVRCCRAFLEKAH

cells [2] = assay type: functional, cell-based
cells [3] = assay type: functional, cell-based; remark: listed apart in the source
[4] = human group III sPLA2 inhibitors, dose response, biochemical, QFRET, IC50 (AID 743457);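 also: green fluorescence rise as the enzyme cleaves BODIPY PC-A2 in liposomes; potency for inhibition of the enzyme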
Melanocortin receptor 4 = Melanocortin receptor 4 (Homo sapiens, UniProt P32245); assay type: functional, cell-based;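 also: Cell-based assay with luminescence read-out, confirmatory dose-response testing for agonist activity of biased ligands at MC4R; human U2OS cells with tagged receptor and beta-arrestin; potency of agonists that increase receptor coupling to beta-arrestin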
Melanocortin receptor 4, sequence (P32245 whole entry): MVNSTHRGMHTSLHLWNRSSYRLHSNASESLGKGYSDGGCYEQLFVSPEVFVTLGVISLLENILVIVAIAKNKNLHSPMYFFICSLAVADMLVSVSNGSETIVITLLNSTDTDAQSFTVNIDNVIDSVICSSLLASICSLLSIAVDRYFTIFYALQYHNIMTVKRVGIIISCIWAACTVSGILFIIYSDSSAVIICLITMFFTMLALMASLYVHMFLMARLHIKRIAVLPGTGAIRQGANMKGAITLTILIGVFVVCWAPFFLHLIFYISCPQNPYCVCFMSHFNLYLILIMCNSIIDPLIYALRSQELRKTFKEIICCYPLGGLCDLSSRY

Leucine aminopeptidase = target: T2, Leucine aminopeptidase (Plasmodium falciparum 3D7, UniProt Q8IL11); experiment: P. falciparum M17LAP inhibitors, primary screen, biochemical, fluorogenic H-Leu-NHMec substrate, 1536-well (AID 1619); assay type: functional
T2 sequence (Q8IL11 whole entry): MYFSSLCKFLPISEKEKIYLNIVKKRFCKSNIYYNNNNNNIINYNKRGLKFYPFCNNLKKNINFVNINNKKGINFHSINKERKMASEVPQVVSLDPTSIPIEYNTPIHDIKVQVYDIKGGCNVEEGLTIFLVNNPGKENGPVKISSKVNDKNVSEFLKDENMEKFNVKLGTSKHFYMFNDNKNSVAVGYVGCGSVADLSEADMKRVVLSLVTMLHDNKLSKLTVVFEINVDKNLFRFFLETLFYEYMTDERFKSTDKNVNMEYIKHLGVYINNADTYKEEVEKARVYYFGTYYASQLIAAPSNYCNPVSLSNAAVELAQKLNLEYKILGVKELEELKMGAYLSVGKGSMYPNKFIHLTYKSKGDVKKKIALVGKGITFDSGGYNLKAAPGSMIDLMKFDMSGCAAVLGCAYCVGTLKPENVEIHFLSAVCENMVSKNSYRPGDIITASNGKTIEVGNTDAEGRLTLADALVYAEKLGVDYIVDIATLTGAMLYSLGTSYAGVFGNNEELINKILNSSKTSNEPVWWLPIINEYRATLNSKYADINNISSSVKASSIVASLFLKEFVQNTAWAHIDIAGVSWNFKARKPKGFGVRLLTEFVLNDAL

[5] = target: Photoreceptor-specific nuclear receptor (Homo sapiens, UniProt Q9Y5X4); assay type: functional, cell-based;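 also: CHO-S cells with Gal4-NCOR and VP16-NR2E3 two-hybrid luciferase reporter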
Photoreceptor-specific nuclear receptor, sequence (Q9Y5X4 whole entry, the tested form may be a part): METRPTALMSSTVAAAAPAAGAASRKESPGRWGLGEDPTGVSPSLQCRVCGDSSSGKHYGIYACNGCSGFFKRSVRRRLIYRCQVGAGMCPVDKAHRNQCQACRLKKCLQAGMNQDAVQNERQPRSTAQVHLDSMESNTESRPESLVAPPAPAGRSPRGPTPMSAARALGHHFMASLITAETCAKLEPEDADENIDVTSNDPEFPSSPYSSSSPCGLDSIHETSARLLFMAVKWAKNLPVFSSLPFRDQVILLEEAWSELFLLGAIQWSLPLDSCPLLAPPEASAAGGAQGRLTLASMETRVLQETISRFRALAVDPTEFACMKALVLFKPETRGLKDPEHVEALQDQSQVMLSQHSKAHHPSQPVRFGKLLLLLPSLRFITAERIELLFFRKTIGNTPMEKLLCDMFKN

[6] = Shn3 3'UTR reporter inhibitors, dose response, cell-based, Clone20 osteoblasts, firefly luciferase, cherry-picked (AID 624132); assay type: functional;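 also: firefly luciferase luminescence from reporter carrying the Shn3 3'UTR in osteoblasts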
[7] = HepG2 cell cytotoxicity, dose response, cytotoxicity control for Shn3 inhibitor project, CellTiter-Glo, cherry-picked (AID 624134); assay type: functional, cell-based
[8] = control 3'UTR Renilla luciferase suppression, dose response, counter-screen for Shn3 inhibitor project, cell-based, Clone20-Shn3RL, cherry-picked (AID 624133); assay type: functional
[9] = Fluorescence-based cell-based high throughput dose response assay for inhibitors of the interaction of nucleotide-binding oligomerization domain containing 2 (NOD2) and the receptor-interacting serine-threonine kinase 2 (RIPK2).; assay type: functional; conditions: Homo sapiens
Bcl-2-related protein A1 = target: T3, Bcl-2-related protein A1 (Mus musculus, UniProt Q07440); assay type: functional;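 also: confirmatory dose–response counterscreen on Bfl-1, used to check hits from a UBC13 polyubiquitin inhibitor campaign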
T3 sequence (Q07440 whole entry): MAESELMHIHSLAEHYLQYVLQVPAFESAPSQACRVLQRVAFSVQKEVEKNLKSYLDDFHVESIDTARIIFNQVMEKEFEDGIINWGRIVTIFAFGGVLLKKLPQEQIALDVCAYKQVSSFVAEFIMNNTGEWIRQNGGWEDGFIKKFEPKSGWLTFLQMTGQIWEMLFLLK

[10] = target: T4, Ubiquitin-conjugating enzyme E2 N (Homo sapiens, UniProt P61088); assay type: functional
T4 sequence (P61088 whole entry): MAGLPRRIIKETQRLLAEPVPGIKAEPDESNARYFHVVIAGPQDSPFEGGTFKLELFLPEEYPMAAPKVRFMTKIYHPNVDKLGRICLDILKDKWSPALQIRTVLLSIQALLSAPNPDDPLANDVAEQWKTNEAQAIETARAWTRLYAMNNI

[11] = target: T4, Ubiquitin-conjugating enzyme E2 N; assay type: functional; remark: listed apart in the source
[12] = target: T5, Apoptotic protease-activating factor 1 (Homo sapiens, UniProt O14727); assay type: functional
T5 sequence (O14727 whole entry): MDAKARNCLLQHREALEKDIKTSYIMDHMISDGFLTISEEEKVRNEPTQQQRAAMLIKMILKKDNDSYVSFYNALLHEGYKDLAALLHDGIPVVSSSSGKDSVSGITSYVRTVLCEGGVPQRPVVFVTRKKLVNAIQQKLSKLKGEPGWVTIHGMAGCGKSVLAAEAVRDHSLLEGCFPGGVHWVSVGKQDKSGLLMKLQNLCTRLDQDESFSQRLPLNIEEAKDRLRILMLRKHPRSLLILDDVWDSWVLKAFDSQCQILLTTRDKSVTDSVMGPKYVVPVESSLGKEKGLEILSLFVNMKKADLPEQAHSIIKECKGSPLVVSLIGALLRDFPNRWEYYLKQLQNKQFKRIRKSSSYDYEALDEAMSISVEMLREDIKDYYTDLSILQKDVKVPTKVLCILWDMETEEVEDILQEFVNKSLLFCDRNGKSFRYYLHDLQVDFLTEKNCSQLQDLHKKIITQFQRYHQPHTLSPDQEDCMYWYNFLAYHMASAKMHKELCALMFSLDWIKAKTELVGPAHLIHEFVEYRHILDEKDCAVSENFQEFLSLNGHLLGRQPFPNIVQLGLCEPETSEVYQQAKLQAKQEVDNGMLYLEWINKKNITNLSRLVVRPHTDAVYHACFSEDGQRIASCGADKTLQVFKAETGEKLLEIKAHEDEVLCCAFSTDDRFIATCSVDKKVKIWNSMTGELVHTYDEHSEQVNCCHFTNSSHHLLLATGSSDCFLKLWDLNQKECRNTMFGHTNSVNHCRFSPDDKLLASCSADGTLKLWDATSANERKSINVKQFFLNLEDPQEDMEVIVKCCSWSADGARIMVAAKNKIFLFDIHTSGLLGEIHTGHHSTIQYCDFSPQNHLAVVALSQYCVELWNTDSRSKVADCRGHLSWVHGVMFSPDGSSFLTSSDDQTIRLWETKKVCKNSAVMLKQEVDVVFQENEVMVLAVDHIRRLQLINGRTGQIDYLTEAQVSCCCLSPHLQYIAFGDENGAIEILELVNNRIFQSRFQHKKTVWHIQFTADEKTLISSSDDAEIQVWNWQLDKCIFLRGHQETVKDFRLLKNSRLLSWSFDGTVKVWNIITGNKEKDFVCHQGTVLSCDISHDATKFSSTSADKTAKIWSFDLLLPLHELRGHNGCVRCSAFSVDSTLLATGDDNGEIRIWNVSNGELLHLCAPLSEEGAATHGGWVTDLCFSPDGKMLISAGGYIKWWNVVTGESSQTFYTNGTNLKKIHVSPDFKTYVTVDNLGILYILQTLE

SN12K1 = experiment: cells; assay type: functional; conditions: Homo sapiens
P388 = experiment: cells; assay type: functional; conditions: Mus musculus
P388/ADR = experiment: cells; assay type: functional; conditions: Mus musculus
Protein RecA = target: T6, Protein RecA (Mycobacterium tuberculosis, UniProt P9WHJ3); experiment: Fluorescence Cell-Free Homogeneous Dose Retest to Identify Inhibitors of RecA-Intein Splicing Activity. [Related pubchem assays (depositor defined):AID2097, AID2223, AID489010, AID492950]; assay type: functional
T6 sequence (P9WHJ3 whole entry): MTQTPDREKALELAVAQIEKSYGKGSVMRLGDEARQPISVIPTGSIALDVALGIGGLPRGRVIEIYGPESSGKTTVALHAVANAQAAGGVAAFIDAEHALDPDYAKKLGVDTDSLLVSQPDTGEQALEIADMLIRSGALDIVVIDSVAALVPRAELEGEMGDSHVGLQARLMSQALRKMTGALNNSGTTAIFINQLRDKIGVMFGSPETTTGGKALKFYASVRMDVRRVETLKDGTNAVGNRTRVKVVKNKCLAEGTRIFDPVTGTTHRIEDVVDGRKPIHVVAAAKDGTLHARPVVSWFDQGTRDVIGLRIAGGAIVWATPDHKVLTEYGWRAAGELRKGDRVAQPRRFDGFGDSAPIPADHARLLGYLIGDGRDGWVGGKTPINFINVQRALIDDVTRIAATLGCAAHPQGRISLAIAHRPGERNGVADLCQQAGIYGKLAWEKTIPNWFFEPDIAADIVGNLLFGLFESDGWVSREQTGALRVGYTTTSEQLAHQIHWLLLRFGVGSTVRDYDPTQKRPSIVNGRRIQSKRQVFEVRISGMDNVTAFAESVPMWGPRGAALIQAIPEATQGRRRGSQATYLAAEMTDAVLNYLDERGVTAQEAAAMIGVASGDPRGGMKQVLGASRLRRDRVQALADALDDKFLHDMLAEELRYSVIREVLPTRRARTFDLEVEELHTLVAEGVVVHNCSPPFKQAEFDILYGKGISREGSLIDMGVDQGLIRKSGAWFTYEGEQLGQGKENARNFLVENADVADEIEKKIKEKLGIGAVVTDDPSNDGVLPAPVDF

[13] = target: T7, Replicative DNA helicase DnaB (Mycobacterium tuberculosis, UniProt P9WMR3); experiment: DnaB intein splicing inhibitors, dose response, biochemical, cell-free fluorescence (AID 449749); assay type: functional
T7 sequence (P9WMR3 whole entry): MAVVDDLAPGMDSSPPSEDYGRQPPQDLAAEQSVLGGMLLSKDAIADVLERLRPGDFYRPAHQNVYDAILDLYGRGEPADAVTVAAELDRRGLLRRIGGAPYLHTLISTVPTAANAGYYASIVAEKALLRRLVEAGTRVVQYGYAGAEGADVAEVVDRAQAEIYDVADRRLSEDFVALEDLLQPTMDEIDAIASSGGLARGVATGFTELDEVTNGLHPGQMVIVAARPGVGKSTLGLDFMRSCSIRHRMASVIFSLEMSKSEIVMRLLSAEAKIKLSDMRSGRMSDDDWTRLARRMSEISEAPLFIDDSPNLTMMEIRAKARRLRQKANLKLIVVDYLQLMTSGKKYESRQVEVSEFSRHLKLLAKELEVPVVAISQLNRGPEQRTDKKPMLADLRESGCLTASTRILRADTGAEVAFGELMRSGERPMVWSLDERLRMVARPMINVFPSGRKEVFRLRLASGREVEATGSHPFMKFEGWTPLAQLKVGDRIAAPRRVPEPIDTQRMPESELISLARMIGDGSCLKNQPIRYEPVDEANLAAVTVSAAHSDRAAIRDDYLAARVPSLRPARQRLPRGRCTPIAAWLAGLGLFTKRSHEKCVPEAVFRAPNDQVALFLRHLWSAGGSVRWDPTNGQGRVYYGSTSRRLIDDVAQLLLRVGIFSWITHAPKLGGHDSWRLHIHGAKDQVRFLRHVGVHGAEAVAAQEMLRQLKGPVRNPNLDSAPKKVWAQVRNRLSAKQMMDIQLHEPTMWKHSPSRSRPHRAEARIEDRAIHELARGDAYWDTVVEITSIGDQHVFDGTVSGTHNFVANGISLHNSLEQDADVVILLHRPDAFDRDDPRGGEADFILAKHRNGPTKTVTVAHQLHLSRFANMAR

## CCn1cc(C(=O)O)c(=O)c2cc(F)c(N3CCN(C(=S)NC(=O)c4ccccc4Cl)CC3)cc21
[1]
  IC50: 5.84 µM (active)

## CC1OC(NCCc2ccccc2)C(O)C(O)C1O (centres undefined)
Cells [2]
  IC50: > 29.9 µM (inactive)
Cells [3]
  EC50: > 29.9 µM (inactive)

## Cc1csc(NC(=S)NC(=O)c2ccccc2)n1
[4]
  IC50: > 122 µM (inactive)

## C/C(=C\c1ccco1)C1C(C#N)=C(N)Oc2[nH]nc(-c3ccc(C)cc3)c21 (centres undefined)
Melanocortin receptor 4
  EC50: > 89.2 µM (inactive)
Leucine aminopeptidase
  IC50: 132 µM (active)

## CN(CC(=O)Nc1ccccc1Cl)C(=O)c1cccc(S(=O)(=O)N2CCN(c3ccc(F)cc3)CC2)c1
[5]
  IC50: 8.34 µM (active)
[6]
  AC50: 3.62 µM (active)
[7]
  AC50: > 70 µM (inactive)
[8]
  AC50: 3.53 µM (active)

## Cc1nnc(C)c2c(C)n(-c3ccc4ncccc4c3)c(C)c12
[1]
  IC50: 45.2 µM (inactive)

## CN(C)CCC(=O)C(Cc1ccccc1)c1ccccc1 (centres undefined)
[9]
  IC50: 4.6 µM (active)
Bcl-2-related protein A1
  IC50: > 20 µM (inactive)
[10]
  IC50: > 20 µM (inactive)
[11]
  IC50: 13.3 µM (active)

## CN(Cc1ccc(Cl)c(Cl)c1)C(=O)c1cccc(S(=O)(=O)N2CCN(Cc3ccccc3)CC2)c1
[6]
  AC50: 3.47 µM (active)
Bcl-2-related protein A1
  IC50: > 20 µM (inactive)
[7]
  AC50: > 70 µM (inactive)
[10]
  IC50: 12.5 µM (active)
[12]
  IC50: 42.7 µM (active)
[11]
  IC50: 18.4 µM (active)
[8]
  AC50: 7.2 µM (active)

## Nc1ccn(C2OC(COP(=O)(O)Oc3ccccc3)C(O)C2O)c(=O)n1 (centres undefined)
SN12K1
  GI50: 5.56 µM (inactive)
P388
  GI50: 0.264 µM (active)
P388/ADR
  GI50: 0.675 µM (active)

## CN1C(=O)c2ccccc2NC(=O)c2cnn(C)c21
SN12K1
  GI50: > 100 µM (inactive)
P388
  GI50: > 100 µM (inactive)
P388/ADR
  GI50: > 100 µM (inactive)

## CC(=O)Nc1cc(-c2cccnc2)cn2c(-c3cccc(C(F)(F)F)c3)cnc12
Melanocortin receptor 4
  EC50: 84.1 µM (inactive)

## COc1ccc2nc3ccccc3c(NCCN(C)CCCl)c2c1
SN12K1
  GI50: 0.684 µM (active)
P388
  GI50: 0.256 µM (active)
P388/ADR
  GI50: 0.424 µM (active)

## CC(=O)c1c(C)[nH]c(C(=O)OCC(=O)c2ccc(Br)cc2)c1C
[5]
  IC50: 3.35 µM (active)

## CC(=O)N(C1=C(N2CCOCC2)C(=O)c2ccccc2C1=O)c1ccc(C(=O)O)cc1
Protein RecA
  EC50: 1.01 µM (active)
[12]
  IC50: 26.2 µM (active)
[13]
  AC50: 16.7 µM (active)

## COC1=CC(=O)c2c(c(O)c3oc4cc(OC)cc(C)c4c(=O)c3c2O)C1=O [BIKAVERIN]
SN12K1
  GI50: 0.422 µM (active)
P388
  GI50: 0.695 µM (active)
P388/ADR
  GI50: 1.04 µM (active)
